Earlier results as cited in patent publication US20110092493A1, “Dose-controlled transdermal promethazine compositions and methods of use” (priority 2008, published 2011).
Structures can show the parent of a compound that is named as a salt. Where two headings read alike, the source gives them in different places.

Tests used:
[1] = oral administration
[2] = not given; remark: listed apart in the source
[3] = 50 mg applied to the wrist in topical pluronic lecithin organogel, 15 healthy volunteers
[4] = following intramuscular injection
[5] = not given; remark: listed apart in the source
[6] = overall, most common adverse events
[7] = both 50 mg suppository treatments (generic, brand-name) vs oral syrup (50 mg)

| SMILES | coefficient of variation for the area under the plasma concentration-versus-time curve (AUC) (50 mg suppository) | mean AUC from 0 to 24 hours (AUC0-24) (50 mg suppository) [ng·h/mL] | coefficient of variation for the area under the plasma concentration-versus-time curve (AUC) (oral syrup (50 mg)) | mean AUC from 0 to 24 hours (AUC0-24) (oral syrup (50 mg)) [ng·h/mL] | fraction of dose absorbed ([1]; on average) [%] | absolute bioavailability ([1]; limited by first-pass clearance) [%] | adverse event: somnolence ([2]; 25 mg suppository) [%] | adverse event: somnolence ([2]; 50 mg oral) [%] | adverse event: somnolence ([2]; 50 mg suppository) [%] | adverse event: headache [2, 6] [%] | adverse event: somnolence [2, 6] [%] | drowsiness, % of subjects [3] [%] | sedation, % of subjects [3] [%] | plasma levels associated with adverse effects [4] [ng/mL] | differences in AUC0-24 ([5]; 50 mg suppository treatments vs oral syrup (50 mg)) | maximum promethazine concentration compared with oral syrup [5, 7] | time to maximum promethazine concentration compared with oral syrup [5, 7] |
| --- | --- | --- | --- | --- | --- | --- | --- | --- | --- | --- | --- | --- | --- | --- | --- | --- | --- |
| CC(CN1c2ccccc2Sc2ccccc21)N(C)C (centres unmarked) [promethazine] | greater than 84% | 168 | greater than 84% | 268 | 88 | 25 | 5 | 22 | 17 | 28 | 35 | 73 | 50 | 48 |  |  |  |
| CC(CN1c2ccccc2Sc2ccccc21)N(C)C (centres unmarked) [promethazine hydrochloride] |  |  |  |  |  |  |  |  |  |  |  |  |  |  | no significant differences | lower | longer |
